The species entered for assay [1] is Homo sapiens. Briefly: Selectivity for MMP13 over MMP12.
The species named for assay [2] is Homo sapiens. Briefly: Selectivity for MMP13 over MMP8.
The next assay concerns the target Collagenase 3 (Homo sapiens, UniProt P45452).
For assay [3], the species on record is Homo sapiens. Briefly: Selectivity for MMP13 over MMP2.

For `CCOCCC1(Oc2ccc(Oc3ccc(C(=O)Nc4cccnc4)cc3)cc2)C(=O)NC(=O)NC1=O`, the Selectivity ratio in the assay filed under Homo sapiens [1] came out at 190; in the assay listed under Homo sapiens [2] it was 120; in the assay filed under Homo sapiens [3], 63. This compound registered an IC50 on Collagenase 3 of 0.4 nM.
The corresponding values for `CCOCCC1(Oc2ccc(Oc3ccc(-c4nnc(-c5ccccc5)o4)cc3)cc2)C(=O)NC(=O)NC1=O` are 126, 98, 66 and 12 nM.
In the same order, the values of `CCOCCC1(Oc2ccc(Oc3ccc(-c4nc(-c5ccccc5)no4)cc3)cc2)C(=O)NC(=O)NC1=O` are 138, 208, 54 and 3.4 nM.
In the same order, the values of `CCOCCC1(Oc2ccc(Oc3ccc(-c4nc(-c5ccc(C#N)cc5)co4)cc3)cc2)C(=O)NC(=O)NC1=O` are 373, 233, 429 and 0.45 nM.
Regarding `CCOCCC1(Oc2ccc(Oc3ccc(C(=O)NCc4cccnc4)cc3)cc2)C(=O)NC(=O)NC1=O`, the Selectivity ratio in the assay filed under Homo sapiens [1] was found to be 27; in the assay filed under Homo sapiens [3], 26. In addition, it took 2.6 nM to reach half-maximal inhibition on Collagenase 3 (IC50).
`CCOCCC1(Oc2ccc(Oc3ccc(-c4cnc(-c5ccccc5)o4)cc3)cc2)C(=O)NC(=O)NC1=O`: the Selectivity ratio was found to be 309 in the assay filed under Homo sapiens [1], 212 in the assay filed under Homo sapiens [2] and 165 in the assay filed under Homo sapiens [3]. The IC50 at Collagenase 3 was 1.7 nM.
In the same order, the values of `CCOCCC1(Oc2ccc(Oc3ccc(C(=O)Nc4ccccn4)cc3)cc2)C(=O)NC(=O)NC1=O` are 27, 15, 27 and 3.9 nM.
Consider `COCCC1(Oc2ccc(Oc3ccc(-c4nc(-c5ccccc5C#N)co4)cc3)cc2)C(=O)NC(=O)NC1=O`, for which the figures for the Selectivity ratio in the assay listed under Homo sapiens [1], in the assay filed under Homo sapiens [2] and in the assay listed under Homo sapiens [3] were 342, 516 and 173, respectively. For the same compound, the IC50 on Collagenase 3 came to 0.73 nM.
In the same order, the values of `CCOCCC1(Oc2ccc(Oc3ccc(-c4nc(-c5ccccn5)co4)cc3)cc2)C(=O)NC(=O)NC1=O` are 158, 57, 74 and 1 nM.
The corresponding values for `CCOCCC1(Oc2ccc(Oc3ccc(-c4nc(-c5ccccc5)co4)cc3)cc2)C(=O)NC(=O)NC1=O` are 259, 115, 58 and 2.4 nM.
The corresponding values for `CCOCCC1(Oc2ccc(Oc3ccc(C(=O)Nc4ccccc4)cc3)cc2)C(=O)NC(=O)NC1=O` are 50, 200, 58 and 0.84 nM.
With `CCOCCC1(Oc2ccc(Oc3ccc(-c4nc(-c5cccc(F)c5)co4)cc3)cc2)C(=O)NC(=O)NC1=O`, the values for the Selectivity ratio in the assay listed under Homo sapiens [1], in the assay listed under Homo sapiens [2] and in the assay filed under Homo sapiens [3] were 906, 133 and 292, respectively. The compound also yielded an IC50 on Collagenase 3 of 0.36 nM.
The corresponding values for `CCOCCC1(Oc2ccc(Oc3ccc(-c4nc(-c5ccncc5)co4)cc3)cc2)C(=O)NC(=O)NC1=O` are 530, 250, 70 and 0.4 nM.
Consider `CCOCCC1(Oc2ccc(Oc3ccc(C(=O)NCc4ccccc4)cc3)cc2)C(=O)NC(=O)NC1=O`, for which the values for the Selectivity ratio in the assay filed under Homo sapiens [1] and in the assay filed under Homo sapiens [3] were 27 and 21, respectively. Further, the IC50 at Collagenase 3 is 8 nM.
Take `CCOCCC1(Oc2ccc(Oc3ccc(C(=O)NCc4ccccc4F)cc3)cc2)C(=O)NC(=O)NC1=O`: the Selectivity ratio in the assay listed under Homo sapiens [1] was found to be 80; in the assay listed under Homo sapiens [2], 27; in the assay filed under Homo sapiens [3], 55. For the same compound, half-maximal inhibition on Collagenase 3 (IC50) required 1.1 nM.
The corresponding values for `CCOCCC1(Oc2ccc(Oc3ccc(-c4cc(-c5ccccc5)no4)cc3)cc2)C(=O)NC(=O)NC1=O` are 38, 571, 11 and 1.6 nM.
In the same order, the values of `CCOCCC1(Oc2ccc(Oc3ccc(-c4nc(-c5cccc(C#N)c5)co4)cc3)cc2)C(=O)NC(=O)NC1=O` are 134, 155, 58 and 0.53 nM.
In the same order, the values of `CCOCCC1(Oc2ccc(Oc3ccc(-c4nc(-c5cccc(F)c5)no4)cc3)cc2)C(=O)NC(=O)NC1=O` are 56, 95, 88 and 7.8 nM.
Take `CCOCCC1(Oc2ccc(Oc3ccc(-c4nc(-c5ccncc5)no4)cc3)cc2)C(=O)NC(=O)NC1=O`: the Selectivity ratio was determined as 232 in the assay listed under Homo sapiens [1], 555 in the assay filed under Homo sapiens [2] and 291 in the assay listed under Homo sapiens [3]. On Collagenase 3, this compound yielded an IC50 of 0.54 nM.
In the case of `COCCC1(Oc2ccc(Oc3ccc(-c4nc(-c5cccc(F)c5)co4)cc3)cc2)C(=O)NC(=O)NC1=O`, the Selectivity ratio in the assay listed under Homo sapiens [1] turned out to be 1310; in the assay filed under Homo sapiens [2], 152; in the assay listed under Homo sapiens [3] it was 239. For the same compound, half-maximal inhibition at Collagenase 3 (IC50) required 0.46 nM.
The corresponding values for `CCOCCC1(Oc2ccc(Oc3ccc(-c4nc(-c5ccc(F)cc5)no4)cc3)cc2)C(=O)NC(=O)NC1=O` are 114, 210, 80 and 6.1 nM.
In the same order, the values of `CCOCCC1(Oc2ccc(Oc3ccc(-c4nc(-c5cccnc5)co4)cc3)cc2)C(=O)NC(=O)NC1=O` are 124, 265, 38 and 0.34 nM.
For the compound `CCOCCC1(Oc2ccc(Oc3ccc(C(=O)NCc4ccccn4)cc3)cc2)C(=O)NC(=O)NC1=O`, the Selectivity ratio in the assay listed under Homo sapiens [1] amounted to 30; in the assay filed under Homo sapiens [3], 17. Besides, the IC50 on Collagenase 3 amounted to 6.1 nM.
With `CCOCCC1(Oc2ccc(Oc3ccc(-c4nc(-c5ccc(F)cc5)co4)cc3)cc2)C(=O)NC(=O)NC1=O`, the Selectivity ratio was determined as 573 in the assay filed under Homo sapiens [1], 243 in the assay filed under Homo sapiens [2] and 455 in the assay listed under Homo sapiens [3]. Besides, at Collagenase 3, the IC50 was determined as 0.68 nM.
Consider `CCOCCC1(Oc2ccc(Oc3ccc(-c4nc(-c5ccccc5C#N)co4)cc3)cc2)C(=O)NC(=O)NC1=O`, for which the Selectivity ratio in the assay filed under Homo sapiens [1] is 178; in the assay listed under Homo sapiens [2], 569; in the assay listed under Homo sapiens [3], 142. In addition, at Collagenase 3, the IC50 worked out at 0.88 nM.
The corresponding values for `CCOCCC1(Oc2ccc(Oc3ccc(-c4nc(-c5ccccc5F)no4)cc3)cc2)C(=O)NC(=O)NC1=O` are 176, 167, 102 and 3.3 nM.
As to `COCCC1(Oc2ccc(Oc3ccc(-c4nc(-c5ccc(F)cc5)co4)cc3)cc2)C(=O)NC(=O)NC1=O`, the results for the Selectivity ratio in the assay filed under Homo sapiens [1], in the assay listed under Homo sapiens [2] and in the assay filed under Homo sapiens [3] were 960, 338 and 356, respectively. This compound returned an IC50 against Collagenase 3 of 0.57 nM.
In the same order, the values of `COCCC1(Oc2ccc(Oc3ccc(-c4nc(-c5ccccc5F)co4)cc3)cc2)C(=O)NC(=O)NC1=O` are 605, 149, 288 and 1.4 nM.
For the compound `CCOCCC1(Oc2ccc(Oc3ccc(-c4ncc(-c5ccccc5)o4)cc3)cc2)C(=O)NC(=O)NC1=O`, the figures for the Selectivity ratio in the assay listed under Homo sapiens [1], in the assay listed under Homo sapiens [2] and in the assay filed under Homo sapiens [3] were 103, 43 and 144, respectively. The IC50 at Collagenase 3 worked out at 7.5 nM.
The corresponding values for `COCCC1(Oc2ccc(Oc3ccc(-c4nc(-c5cccc(C#N)c5)co4)cc3)cc2)C(=O)NC(=O)NC1=O` are 181, 140, 29 and 0.63 nM.
Regarding `CCOCCC1(Oc2ccc(Oc3ccc(C(=O)NCc4cccc(F)c4)cc3)cc2)C(=O)NC(=O)NC1=O`, the results for the Selectivity ratio in the assay listed under Homo sapiens [1], in the assay listed under Homo sapiens [2] and in the assay listed under Homo sapiens [3] were 120, 25 and 74, respectively. The same compound returned an IC50 against Collagenase 3 of 0.85 nM.
Regarding `CCOCCC1(Oc2ccc(Oc3ccc(C(=O)NCc4ccc(F)cc4)cc3)cc2)C(=O)NC(=O)NC1=O`, the figures for the Selectivity ratio in the assay listed under Homo sapiens [1] and in the assay listed under Homo sapiens [3] were 11 and 17, respectively. The half-maximal inhibitory concentration (IC50) at Collagenase 3 was found to be 3.4 nM.
In the same order, the values of `CCOCCC1(Oc2ccc(Oc3ccc(-c4noc(-c5ccccc5)n4)cc3)cc2)C(=O)NC(=O)NC1=O` are 37, 27 and 0.84 nM.
On to `CCOCCC1(Oc2ccc(Oc3ccc(-c4nc(-c5ccccc5F)co4)cc3)cc2)C(=O)NC(=O)NC1=O`, for which the Selectivity ratio in the assay filed under Homo sapiens [1] came to 868; in the assay listed under Homo sapiens [2] it was 270; in the assay filed under Homo sapiens [3] it was 562. In addition, on Collagenase 3, the midpoint of inhibition, the IC50, lay at 0.93 nM.
`CCOCCC1(Oc2ccc(Oc3ccc(-c4nc(-c5cccnc5)no4)cc3)cc2)C(=O)NC(=O)NC1=O`: the figures for the Selectivity ratio in the assay listed under Homo sapiens [1], in the assay filed under Homo sapiens [2] and in the assay filed under Homo sapiens [3] were 504, 320 and 134, respectively. Moreover, the IC50 at Collagenase 3 turned out to be 2 nM.

(Values after ChEMBL document CHEMBL1139698, “Potent, selective pyrimidinetrione-based inhibitors of MMP-13” (Bioorg Med Chem Lett, 2006).)
